The record followed here is patent US10800815B2, “Kv1.3 potassium channel antagonists” (cgtx-Peptide Development GmbH, priority 2014, dated 2020).

Structures are written as SMILES. Entries after “also recorded” stand apart in the source; their conditions may differ.

The subject of data set [1] is antigen induced arthritis (AIA). Description: Antigen induced arthritis (AIA) rat model, knee joint swelling. The data set is classed as in vivo. Conditions: for effect on knee swelling, curative treatment: 1 mg/kg BW i.v. daily, start on day 0 or day 1, vs vehicle.
A further data set concerns the target T1, Kv1.5 (Homo sapiens, UniProt P22460).
T1 construct: expressed in transfected cells; host or cells: Sf21 insect cells, baculovirus infection
The experiment in a line: Patch-clamp measurement of Kv1.5 channel inhibition (Example 1). It is filed as cell-based. Conditions: up to a concentration of 10 μM. The method, then:
FIGS. 1A-1F Measurement of Kv1.3 (FIGS. 1B and 1E), Kv1.5 (FIGS. 1C and 1F) and Kv1.1 (FIGS. 1A and 1D) channel inhibition by patch-clamp.
Peptides were dissolved at 1 μg/μl in 20 mM NaPO4 buffer pH 8.2 (1 mg in 1 ml folding buffer) and dialysed against the same buffer 3×1 L, Float-a-Lyzer cut off 500 Da (Spectrapor) at room temperature.
HsTx 1 binding was tested at various concentrations of e.g. 100 pM, 1 nM, 10 nM, 50 nM, 100 nM, 500 nM, and 1 μM—depending on the tested channel. Representative measurements for Kv 1.1, Kv1.3 and Kv1.5 are depicted in FIGS. 1 a), 1 b), and 1 c) respectively.
Cgtx-544 binding was tested at various concentrations of e.g. 1 nM, 10 nM, 50 nM, 100 nM, 1 μM, and 5 μM—depending on the tested channel. Representative measurements for Kv1.1, Kv1.3 and Kv1.5 are depicted in FIGS. 1 d), 1e), and 1) f, respectively.
In general terms: Patch clamp records ionic current or voltage across a cell membrane.

The target of data set [2] is T2, Kv1.3 channels endogenously expressed in TEM cells (Homo sapiens, UniProt P22001).
T2 construct: endogenously expressed Kv1.3 channels in TEM cells; endogenous in cells
The experiment in a line: Block of Kv1.3 currents in isolated human TEM cells (Example 4). The data set is classed as cell-based. The following applies: incompletely folded peptide. An excerpt: The insect cell line Spodoptera frugiperda (Sf21) was used in combination with a Baculovirus infection system for the heterologous expression of recombinant ion channels. Sf21 cells offer highly specific protein expression and correct posttranslational modifications resulting in functional channels with proposed comparability of electrophysiological parameters of ion channels in vivo. Therefore, it was necessary to compare the electrophysiological properties of the potassium selective ion channel Kv1.3 expressed in Sf21 cells and endogenously expressed Kv1.3 channels in TEM cells.
For the comparison of characteristic voltage dependent Kv1.3 channel activation a typical voltage protocol from −60 mV to +60 mV in 20 mV steps (activation pulse 200 ms) was used. Cells were clamped at a holding potential of −100 mV.
The maximal observed current, which clearly originates from Kv1.3 activity, and the applied voltage allows to assess the total conductivity of all Kv1.3 channels. Accordingly, the number of channels can be extracted using the known conductivity of a single Kv1.3 channel. […] By variation of the infection conditions, it is possible to control the expression level of Kv1.3 in Sf21 cells, according to the needs of the investigation. Under our standard conditions a maximal current of 2-5 nA, a conductance of 33-50 nS and a number of 2500-3800 channels per cell can be estimated. […]

The subject of a further data set is antibody formation. The data set is classed as in vivo, rat. As to the method:
FIG. 27 Analysis of mBSA specific antibodies. In the experimental groups H and I all animals have produced antibodies against the antigen mBSA during the immunization and AIA induction period.
The remaining swelling in treated animals was assumed to be due to antibody/antigen reactions. Therefore, immunized as well as naïve animals were tested for the presence of mBSA specific antibodies. Antibodies against mBSA could be detected in all immunized animals of groups H and I seven days after arthritis induction (FIG. 27).

T2 sequence (P22001 whole entry): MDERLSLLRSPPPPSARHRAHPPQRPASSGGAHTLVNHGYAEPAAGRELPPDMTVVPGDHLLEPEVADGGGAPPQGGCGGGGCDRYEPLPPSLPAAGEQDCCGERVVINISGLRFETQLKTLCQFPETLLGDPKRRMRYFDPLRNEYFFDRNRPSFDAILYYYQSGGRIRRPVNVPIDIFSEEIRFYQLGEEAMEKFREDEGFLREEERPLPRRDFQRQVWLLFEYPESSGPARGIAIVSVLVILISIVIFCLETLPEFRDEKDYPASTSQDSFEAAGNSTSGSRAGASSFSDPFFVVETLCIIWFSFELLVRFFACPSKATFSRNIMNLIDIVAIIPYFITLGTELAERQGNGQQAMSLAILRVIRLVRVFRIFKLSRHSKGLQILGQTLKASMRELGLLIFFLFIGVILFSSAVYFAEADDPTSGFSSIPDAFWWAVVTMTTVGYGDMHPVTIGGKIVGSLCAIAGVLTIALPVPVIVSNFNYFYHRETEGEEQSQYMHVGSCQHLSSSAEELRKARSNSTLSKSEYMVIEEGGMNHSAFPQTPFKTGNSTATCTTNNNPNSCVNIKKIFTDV
T1 sequence (P22460 whole entry): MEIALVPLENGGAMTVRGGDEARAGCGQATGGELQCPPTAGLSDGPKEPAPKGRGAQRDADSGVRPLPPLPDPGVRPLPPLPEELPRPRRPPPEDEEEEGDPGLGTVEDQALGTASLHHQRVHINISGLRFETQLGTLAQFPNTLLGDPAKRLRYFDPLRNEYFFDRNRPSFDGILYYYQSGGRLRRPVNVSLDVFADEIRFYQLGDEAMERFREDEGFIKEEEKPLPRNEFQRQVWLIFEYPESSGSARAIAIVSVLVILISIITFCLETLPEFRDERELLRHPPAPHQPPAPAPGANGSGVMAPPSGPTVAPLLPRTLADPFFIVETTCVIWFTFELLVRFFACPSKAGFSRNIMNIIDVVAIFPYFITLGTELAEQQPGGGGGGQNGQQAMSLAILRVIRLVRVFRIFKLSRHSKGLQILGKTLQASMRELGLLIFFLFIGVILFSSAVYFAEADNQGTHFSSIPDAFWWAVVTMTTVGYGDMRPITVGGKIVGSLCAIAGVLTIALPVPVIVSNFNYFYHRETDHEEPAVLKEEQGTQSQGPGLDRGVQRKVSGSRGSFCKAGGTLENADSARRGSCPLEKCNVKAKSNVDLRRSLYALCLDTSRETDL

On to `CC[C@H](C)[C@H](NC(=O)[C@@H](N)[C@@H](C)O)C(=O)N[C@H](C(=O)N[C@@H](CC(N)=O)C(=O)N[C@H](C(=O)N[C@@H](CCCCN)C(=O)N[C@H]1CSSC[C@@H]2NC(=O)[C@H](CCCCN)NC(=O)CNC(=O)[C@H](Cc3ccc(O)cc3)NC(=O)[C@@H]3CCCN3C(=O)[C@@H]3CSSC[C@@H](C(=O)O)NC(=O)[C@H](CCCNC(=N)N)NC(=O)[C@H](CC(N)=O)NC(=O)[C@@H]4CSSC[C@H](NC(=O)[C@@H]5CCCN5C(=O)[C@@H]5CCCN5C(=O)[C@H](CC(C)C)NC(=O)[C@H](CSSC[C@H](NC(=O)[C@H](CCCCN)NC(=O)[C@H](CCCNC(=N)N)NC(=O)[C@H](CC(N)=O)NC(=O)[C@H](CCSC)NC2=O)C(=O)N[C@@H](CCCCN)C(=O)N4)NC(=O)[C@H](CCC(N)=O)NC(=O)[C@H](CCCCN)NC(=O)[C@@H]2CCCN2C(=O)[C@H](CO)NC(=O)[C@H]([C@@H](C)O)NC1=O)C(=O)N[C@@H](CCCCN)C(=O)N[C@@H](C)C(=O)N[C@@H](CCC(N)=O)C(=O)N[C@@H]([C@@H](C)O)C(=O)NCC(=O)N3)C(C)C)[C@@H](C)CC` [Compound 7], for which the “relative difference of knee swelling (normalized)” value in data set [1] (1 mg/kg 1× daily i.v. from day −3) is given as 0.18±0.05. In addition, in data set [1] (1 mg/kg 1× daily i.v., 24 h after arthritis induction), the “reduction of knee swelling relative to the vehicle control group” value is 60%. In data set [1] (1 mg/kg BW i.v. 1×d1 and 1×d4, listed as cgtx-544), the “effect on knee swelling after second single injection” value is given as “reduced again to a significant value; also recorded: statistically significant reduction in knee swelling”. Further, the “effect on knee swelling, curative treatment” value is “statistically significant reduction in knee swelling” in data set [1] (listed as cgtx-544); “clear reducing, and statistically significant effect; also recorded: significant reduction in knee joint swelling” in data set [1] (listed as cgtx-544(Mix)). The “knee joint swelling versus untreated (excipient) controls” value in data set [1] (1 mg/kg BW i.v. from day −3) was “clear reduction of the knee joint swelling”. In addition, the “knee diameters after seven days of treatment, curative” value in data set [1] (1 mg/kg i.v. daily, start day 0 or day 1) is recorded as “nearly comparable to the non-induced, intra-individual control knee”. Further, the “maximal reduction of knee swelling, curative treatment” value worked out at 40% in data set [1] (1 mg/kg i.v. daily, therapy started on day 0 immediately after arthritis induction) and 58% in data set [1] (1 mg/kg i.v. daily, therapy started on day 1). Besides, in data set [1] (0.1, 1 and 5 mg/kg BW i.v. daily, day −3 to day 6, vs vehicle, listed as cgtx-544), the “effect on knee swelling, preventive treatment” value is “clear reducing, dose dependent and statistically significant effect; also recorded: statistically significant reduction in knee swelling”. Also, the “knee diameters after seven days of treatment, preventive” value in data set [1] (daily i.v. from day −3) is reported as “nearly comparable to the non-induced, intra-individual control knee”. The “maximal reduction of knee swelling, preventive treatment” value in data set [1] (daily i.v. from day −3) is recorded as 70%. In addition, in data set [1] (single i.v. injection 1 mg/kg BW on day 1 (1×d1), 24 h after application, listed as cgtx-544, 1 mg/kg), the “effect on knee swelling after single injection” value is “clear and statistically significant reduction of knee swelling; also recorded: statistically significant reduction in knee swelling; also recorded: strong and sustained effect”. The “binding to Kv1.5” value on Kv1.5 is recorded as “no binding”. For the same compound, the “Kv1.3 block on human TEM cells compared with Kv1.3 transfected Sf21 cells” value in data set [2] is given as “the same values”. Further, the “reactivity of immunized animals on cgtx-544(Mix) (anti-peptide antibodies)” value in the data set with antibody formation (after 10 days under peptide therapy) was “no reactivity”. The “suppression of B-lymphocytes and antibody formation (mBSA specific antibodies)” value in the data set with antibody formation (seven days after arthritis induction) is “does not seem to suppress B-lymphocytes and antibody formation”.
